Assay [1] concerns the target Ribosomal protein S6 kinase alpha-1 (Homo sapiens, UniProt Q15418). Kind of assay: Selectivity interaction (Kinase panel (KiNativ target engagement assay in Jurkat cells)) EUB0001635a RPS6KA1. The assay is classed as cell-based. To be noted: Selectivity number of off-targets 0.0, Selectivity number of targets 233.0, Source Knowledge https://www.sciencedirect.com/science/article/pii/S2451945619300674?via%3Dihub, at 1 µM.

Assay [2] concerns Epidermal growth factor receptor (Homo sapiens), P00533 [UNDEFINED MUTATION]. Kind of assay: Selectivity interaction (KinomeScan (DiscoverX)) EUB0001619a EGFR. To be noted: at 1 µM.
Another assay deals with Misshapen-like kinase 1 (Homo sapiens, UniProt Q8N4C8). The experiment in a line: Selectivity interaction (Enzymatic assay) EUB0001199aCl MINK1.
Assay [3] deals with Tyrosine-protein kinase BTK (Homo sapiens, UniProt Q06187). Kind of assay: Selectivity interaction (Kinase panel (literature)) EUB0001199aCl BTK. The settings on record: at 1 µM.
Another assay has as its target D(2) dopamine receptor (Homo sapiens, UniProt P14416). Kind of assay: Selectivity interaction (Dopamine D2 receptor assay, human recombinant ) EUB0000877a DRD2.
In assay [4] the target is Serine/threonine-protein kinase MARK1 (Homo sapiens) (UniProt Q9P0L2). The experiment in a line: Selectivity interaction (Kinase screening (Nanosyn)) EUB0000604a MARK1.
Assay [5] deals with Protein kinase C eta type (Homo sapiens) (UniProt P24723). Kind of assay: Selectivity interaction (Kinase screening (Nanosyn)) EUB0000604a PRKCH.
Assay [6] concerns the target T1, Serine/threonine-protein kinase PLK4 (Homo sapiens) (UniProt O00444).
T1 sequence (whole entry): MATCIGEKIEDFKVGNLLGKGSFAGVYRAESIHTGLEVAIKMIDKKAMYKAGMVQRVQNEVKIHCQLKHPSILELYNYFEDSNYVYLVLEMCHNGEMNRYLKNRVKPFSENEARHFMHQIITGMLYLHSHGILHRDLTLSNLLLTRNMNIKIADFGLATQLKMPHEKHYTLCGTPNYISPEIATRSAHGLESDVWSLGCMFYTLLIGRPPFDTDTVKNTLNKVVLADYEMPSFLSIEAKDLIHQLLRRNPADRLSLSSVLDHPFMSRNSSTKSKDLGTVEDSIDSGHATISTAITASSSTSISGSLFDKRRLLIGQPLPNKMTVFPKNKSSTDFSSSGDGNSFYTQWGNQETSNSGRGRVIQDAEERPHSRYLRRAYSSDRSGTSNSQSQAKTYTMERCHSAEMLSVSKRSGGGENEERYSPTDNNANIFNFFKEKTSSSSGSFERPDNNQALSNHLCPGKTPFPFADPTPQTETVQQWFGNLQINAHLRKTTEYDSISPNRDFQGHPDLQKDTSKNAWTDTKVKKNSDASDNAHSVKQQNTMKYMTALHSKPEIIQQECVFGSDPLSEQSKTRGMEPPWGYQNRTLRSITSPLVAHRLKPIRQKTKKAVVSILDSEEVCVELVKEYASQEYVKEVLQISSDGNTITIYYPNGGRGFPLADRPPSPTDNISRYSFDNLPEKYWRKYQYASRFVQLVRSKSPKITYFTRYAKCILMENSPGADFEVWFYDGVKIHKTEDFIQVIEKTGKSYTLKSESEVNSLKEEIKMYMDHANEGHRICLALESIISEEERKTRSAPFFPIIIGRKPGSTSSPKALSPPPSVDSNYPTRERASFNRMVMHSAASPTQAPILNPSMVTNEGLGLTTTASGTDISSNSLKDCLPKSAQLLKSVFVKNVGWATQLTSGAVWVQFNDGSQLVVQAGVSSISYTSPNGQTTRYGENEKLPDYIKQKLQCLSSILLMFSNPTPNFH
The experiment in a line: Selectivity interaction (KinomeScan (DiscoverX)) EUB0000695a PLK4. The settings on record: at 100 nM.

Assay [7] addresses Mitogen-activated protein kinase 3 (Homo sapiens, UniProt P27361). Kind of assay: Selectivity interaction (KinomeScan (DiscoverX)) EUB0000045b MAPK3.
Assay [8] has as its target T2, Inhibitor of nuclear factor kappa-B kinase subunit beta (Homo sapiens) (UniProt O14920).
T2 sequence (whole entry): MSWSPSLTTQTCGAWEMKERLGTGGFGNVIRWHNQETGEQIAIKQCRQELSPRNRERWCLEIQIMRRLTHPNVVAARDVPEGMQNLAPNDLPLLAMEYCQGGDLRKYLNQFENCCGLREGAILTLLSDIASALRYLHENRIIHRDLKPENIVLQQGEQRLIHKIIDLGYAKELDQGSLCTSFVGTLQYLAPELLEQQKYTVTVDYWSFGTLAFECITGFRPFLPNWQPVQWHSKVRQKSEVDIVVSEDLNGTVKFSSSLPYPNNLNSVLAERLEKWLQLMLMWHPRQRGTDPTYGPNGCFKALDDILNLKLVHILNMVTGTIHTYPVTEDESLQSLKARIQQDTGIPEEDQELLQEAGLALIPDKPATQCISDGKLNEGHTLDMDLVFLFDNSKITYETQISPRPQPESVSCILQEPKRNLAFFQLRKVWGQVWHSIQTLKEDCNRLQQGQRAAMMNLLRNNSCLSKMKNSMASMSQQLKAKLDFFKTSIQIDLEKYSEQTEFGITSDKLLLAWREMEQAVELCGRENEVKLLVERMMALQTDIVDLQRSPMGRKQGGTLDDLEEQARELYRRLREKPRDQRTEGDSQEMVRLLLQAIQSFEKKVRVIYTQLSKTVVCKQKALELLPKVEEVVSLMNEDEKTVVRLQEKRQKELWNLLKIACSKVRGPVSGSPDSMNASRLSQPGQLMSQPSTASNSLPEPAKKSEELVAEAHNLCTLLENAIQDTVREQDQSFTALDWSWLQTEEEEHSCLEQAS
Kind of assay: Selectivity interaction (KinomeScan (DiscoverX)) EUB0000618a IKBKB. To be noted: at 10 µM.

For assay [9], the target named is CDK3/cyclin E (Homo sapiens) (UniProt P24864+O96020+Q00526). The experiment in a line: Selectivity interaction (Upstate Kinase Profiler service (Millipore)) EUB0000056c CDK3. Type of assay: protein-complex assay. The settings on record: at 1 µM.

The values below come from ChEMBL document CHEMBL5465560, “Selectivity Literature for EUbOPEN Chemogenomic Library” (2024).

Sequence of Mitogen-activated protein kinase 3 (P27361 whole entry): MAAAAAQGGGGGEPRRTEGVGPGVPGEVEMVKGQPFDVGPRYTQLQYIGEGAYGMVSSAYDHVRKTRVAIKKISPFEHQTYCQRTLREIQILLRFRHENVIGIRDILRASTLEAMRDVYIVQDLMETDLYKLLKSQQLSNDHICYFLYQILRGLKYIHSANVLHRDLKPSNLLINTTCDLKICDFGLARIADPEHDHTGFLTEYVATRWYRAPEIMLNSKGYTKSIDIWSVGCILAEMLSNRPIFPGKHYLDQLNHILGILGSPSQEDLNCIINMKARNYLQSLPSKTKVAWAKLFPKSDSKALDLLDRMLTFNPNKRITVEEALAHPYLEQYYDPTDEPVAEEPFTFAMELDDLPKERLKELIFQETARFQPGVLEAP
Sequence of D(2) dopamine receptor (P14416 whole entry): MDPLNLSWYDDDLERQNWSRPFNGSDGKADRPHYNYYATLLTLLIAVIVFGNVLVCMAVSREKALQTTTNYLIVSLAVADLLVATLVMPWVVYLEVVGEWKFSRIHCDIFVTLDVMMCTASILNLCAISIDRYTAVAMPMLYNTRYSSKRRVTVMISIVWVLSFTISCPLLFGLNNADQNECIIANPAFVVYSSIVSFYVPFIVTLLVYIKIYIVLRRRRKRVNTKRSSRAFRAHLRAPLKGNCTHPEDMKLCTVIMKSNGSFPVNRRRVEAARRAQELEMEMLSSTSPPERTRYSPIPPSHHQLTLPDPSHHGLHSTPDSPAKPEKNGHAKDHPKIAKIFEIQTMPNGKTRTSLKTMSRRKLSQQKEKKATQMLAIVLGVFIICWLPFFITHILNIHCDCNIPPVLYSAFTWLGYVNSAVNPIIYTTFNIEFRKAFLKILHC
Sequence of Epidermal growth factor receptor (Homo sapiens), P00533 [UNDEFINED MUTATION] (P00533 whole entry, looked up, change not shown): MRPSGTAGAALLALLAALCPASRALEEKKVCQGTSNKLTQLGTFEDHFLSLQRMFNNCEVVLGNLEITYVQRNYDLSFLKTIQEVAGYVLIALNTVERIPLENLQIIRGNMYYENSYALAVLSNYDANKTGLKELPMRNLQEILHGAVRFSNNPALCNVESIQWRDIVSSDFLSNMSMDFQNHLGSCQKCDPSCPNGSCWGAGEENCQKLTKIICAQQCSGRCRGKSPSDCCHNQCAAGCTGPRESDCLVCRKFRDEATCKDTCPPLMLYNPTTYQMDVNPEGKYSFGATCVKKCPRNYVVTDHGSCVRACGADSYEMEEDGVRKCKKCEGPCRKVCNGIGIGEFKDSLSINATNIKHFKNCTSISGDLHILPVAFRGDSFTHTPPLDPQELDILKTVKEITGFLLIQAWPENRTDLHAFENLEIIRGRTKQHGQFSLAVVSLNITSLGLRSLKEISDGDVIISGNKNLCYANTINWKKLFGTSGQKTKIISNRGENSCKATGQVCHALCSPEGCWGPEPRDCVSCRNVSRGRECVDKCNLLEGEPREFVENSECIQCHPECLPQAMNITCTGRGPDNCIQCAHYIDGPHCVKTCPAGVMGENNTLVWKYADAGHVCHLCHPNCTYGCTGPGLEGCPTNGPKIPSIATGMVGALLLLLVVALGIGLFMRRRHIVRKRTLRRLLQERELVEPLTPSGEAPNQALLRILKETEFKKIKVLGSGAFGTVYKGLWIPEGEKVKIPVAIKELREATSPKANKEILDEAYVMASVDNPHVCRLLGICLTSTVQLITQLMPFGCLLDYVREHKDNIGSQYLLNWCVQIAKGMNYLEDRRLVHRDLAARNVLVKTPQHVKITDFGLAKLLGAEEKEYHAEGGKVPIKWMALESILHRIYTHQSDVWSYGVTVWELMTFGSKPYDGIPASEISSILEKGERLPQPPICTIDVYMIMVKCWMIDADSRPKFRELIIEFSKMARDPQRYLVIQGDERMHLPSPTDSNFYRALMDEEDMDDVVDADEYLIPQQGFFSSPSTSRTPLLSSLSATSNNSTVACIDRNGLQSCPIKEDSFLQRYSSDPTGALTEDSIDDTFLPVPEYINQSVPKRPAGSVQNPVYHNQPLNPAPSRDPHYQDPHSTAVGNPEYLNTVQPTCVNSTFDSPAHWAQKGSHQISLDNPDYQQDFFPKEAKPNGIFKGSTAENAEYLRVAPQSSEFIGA
Sequence of Serine/threonine-protein kinase MARK1 (Homo sapiens) (Q9P0L2 whole entry, looked up): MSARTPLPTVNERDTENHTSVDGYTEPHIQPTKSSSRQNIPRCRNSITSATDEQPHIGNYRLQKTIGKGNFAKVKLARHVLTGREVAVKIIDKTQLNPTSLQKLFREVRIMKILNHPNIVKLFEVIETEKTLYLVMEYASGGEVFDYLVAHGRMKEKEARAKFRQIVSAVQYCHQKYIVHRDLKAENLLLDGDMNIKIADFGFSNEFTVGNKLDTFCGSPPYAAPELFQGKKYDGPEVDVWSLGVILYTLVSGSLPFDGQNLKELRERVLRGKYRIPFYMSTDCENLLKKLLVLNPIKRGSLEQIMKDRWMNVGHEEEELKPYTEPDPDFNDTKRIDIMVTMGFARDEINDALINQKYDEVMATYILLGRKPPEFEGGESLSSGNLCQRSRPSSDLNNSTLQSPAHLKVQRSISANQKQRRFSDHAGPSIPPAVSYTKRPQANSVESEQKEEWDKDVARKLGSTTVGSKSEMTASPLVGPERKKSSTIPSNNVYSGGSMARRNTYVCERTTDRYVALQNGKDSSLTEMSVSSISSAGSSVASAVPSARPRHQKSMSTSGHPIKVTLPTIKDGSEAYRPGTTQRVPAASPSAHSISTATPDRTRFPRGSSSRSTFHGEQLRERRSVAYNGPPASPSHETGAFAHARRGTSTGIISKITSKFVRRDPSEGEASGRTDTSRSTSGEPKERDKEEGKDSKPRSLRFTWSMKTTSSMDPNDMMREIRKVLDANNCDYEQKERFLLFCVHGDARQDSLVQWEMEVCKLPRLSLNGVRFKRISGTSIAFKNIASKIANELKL
Sequence of Tyrosine-protein kinase BTK (Q06187 whole entry): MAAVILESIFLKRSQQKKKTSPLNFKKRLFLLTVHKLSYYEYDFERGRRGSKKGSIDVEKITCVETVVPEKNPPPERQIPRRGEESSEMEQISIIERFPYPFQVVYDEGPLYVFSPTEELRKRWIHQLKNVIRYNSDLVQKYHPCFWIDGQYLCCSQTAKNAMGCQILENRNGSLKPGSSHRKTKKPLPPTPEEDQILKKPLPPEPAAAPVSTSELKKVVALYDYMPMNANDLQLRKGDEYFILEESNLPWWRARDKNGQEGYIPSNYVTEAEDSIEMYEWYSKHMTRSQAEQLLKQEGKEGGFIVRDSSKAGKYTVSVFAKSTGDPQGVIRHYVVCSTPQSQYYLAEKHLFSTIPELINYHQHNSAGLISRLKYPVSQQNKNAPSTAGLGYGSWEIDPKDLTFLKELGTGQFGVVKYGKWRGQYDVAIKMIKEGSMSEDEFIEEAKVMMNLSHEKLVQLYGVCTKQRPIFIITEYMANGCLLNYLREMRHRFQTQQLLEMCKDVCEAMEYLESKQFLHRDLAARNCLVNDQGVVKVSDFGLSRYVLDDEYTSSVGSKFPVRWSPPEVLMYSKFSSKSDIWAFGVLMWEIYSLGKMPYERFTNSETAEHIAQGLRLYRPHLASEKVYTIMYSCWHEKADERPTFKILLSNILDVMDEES
Sequence of CDK3/cyclin E (Homo sapiens) (O96020 whole entry, looked up): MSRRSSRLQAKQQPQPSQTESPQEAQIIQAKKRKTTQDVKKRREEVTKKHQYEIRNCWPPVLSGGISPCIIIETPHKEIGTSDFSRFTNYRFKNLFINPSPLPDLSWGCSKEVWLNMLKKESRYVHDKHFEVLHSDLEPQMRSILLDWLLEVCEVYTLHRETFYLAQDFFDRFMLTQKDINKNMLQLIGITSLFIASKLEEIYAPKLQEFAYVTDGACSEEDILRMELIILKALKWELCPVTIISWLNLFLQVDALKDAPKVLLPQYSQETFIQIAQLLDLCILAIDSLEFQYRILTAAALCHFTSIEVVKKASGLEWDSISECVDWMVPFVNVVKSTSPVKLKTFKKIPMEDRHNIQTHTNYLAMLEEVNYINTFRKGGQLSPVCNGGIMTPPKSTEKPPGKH
Sequence of CDK3/cyclin E (Homo sapiens) (P24864 whole entry, looked up): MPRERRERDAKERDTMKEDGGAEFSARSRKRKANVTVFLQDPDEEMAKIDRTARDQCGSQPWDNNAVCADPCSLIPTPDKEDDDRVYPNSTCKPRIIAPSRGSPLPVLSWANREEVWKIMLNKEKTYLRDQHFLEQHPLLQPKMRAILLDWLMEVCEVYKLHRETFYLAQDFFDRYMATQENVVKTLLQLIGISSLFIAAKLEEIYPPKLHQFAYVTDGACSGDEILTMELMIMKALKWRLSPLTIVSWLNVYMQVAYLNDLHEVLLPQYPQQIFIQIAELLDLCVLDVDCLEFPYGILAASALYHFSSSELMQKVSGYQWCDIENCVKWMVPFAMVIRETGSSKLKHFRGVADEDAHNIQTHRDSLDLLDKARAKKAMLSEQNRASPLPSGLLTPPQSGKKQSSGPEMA
Sequence of CDK3/cyclin E (Homo sapiens) (Q00526 whole entry, looked up): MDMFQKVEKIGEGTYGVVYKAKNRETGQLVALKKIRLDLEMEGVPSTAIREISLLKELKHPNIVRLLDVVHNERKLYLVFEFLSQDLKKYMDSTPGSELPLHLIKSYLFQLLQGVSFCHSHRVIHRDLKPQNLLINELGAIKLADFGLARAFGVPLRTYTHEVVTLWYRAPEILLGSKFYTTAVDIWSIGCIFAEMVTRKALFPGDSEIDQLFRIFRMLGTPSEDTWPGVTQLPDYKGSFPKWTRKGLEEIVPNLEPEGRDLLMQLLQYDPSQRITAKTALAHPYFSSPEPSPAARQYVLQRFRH

On to `C=CC(=O)Nc1ccc(C(=O)Nc2[nH]nc3c2CN(C(=O)N[C@H](CN(C)C)c2ccccc2)C3(C)C)cc1`, for which the % of engagement in [1] was found to be 1.2%.

In the case of `N#Cc1cccc(-c2c[nH]c3ncnc(N4CCOCC4)c23)c1`, in assay [2], the % of control is 83%.

In the case of `CN1Cc2nccc(-c3cn(C)nc3-c3ccc(F)cc3)c2C1=O`, the midpoint of inhibition against Misshapen-like kinase 1, the IC50, lay at 1570 nM. Besides, the % of inhibition in assay [3] was found to be 2%.

`CCC(=O)N1CC[C@H](Nc2ncnc3c2CN(c2cnc(OC)c(C(F)(F)F)c2)CC3)C1` [LENIOLISIB]: the IC50 (usually the concentration needed to halve the response being measured) at D(2) dopamine receptor is > 30 µM.

Turning to `Cc1cnc(Nc2ccc(F)cc2Cl)nc1-c1c[nH]c(C(=O)N[C@H](CO)c2cccc(Cl)c2)c1`, the figures for the % of inhibition in assay [4] and in assay [5] were 12% and 2%, respectively.

In assay [6], `Cc1cc(F)c(C(=O)Nc2cccc(-c3nncn3C(C)C)n2)cc1-n1cnc(C2CC2)c1` registered a % of control of 100%.

Take `C=CC(=O)Nc1cc(-n2c(=O)ccc3cnc4ccc(-c5ccc(NS(C)(=O)=O)cc5)cc4c32)ccc1C`: the results for the % of control in assay [7] (at 1 µM) and in assay [7] (at 10 µM) were 100% and 79%, respectively.

For the compound `O[C@H]1CC[C@H](Nc2ncc3nc(Nc4c(F)cc(F)cc4F)n([C@H]4CCOC4)c3n2)CC1`, the % of control in assay [8] came to 100%.

In turn, `Cc1ccc(-c2ccc3c(ccc4sc5c(c43)NC[C@@H](C)NC5=O)n2)cn1` registered a % of inhibition in assay [9] of 5%.
